Measured values as given in patent US6426355B1, “Heterocyclic carboxamide-containing thiourea inhibitors of herpes viruses containing phenylenediamine group” (American Home Products, priority 1998, dated 2002).
Values after ≈ are worked out from the molar mass of the structure shown.

Experiments:
VZV strain Ellen = test: VZV Antiviral (ELISA) assay; format: cell-based; settings: for IC50 (ug/ml) VZV / % inhibition 10 ug/ml VZV: VZV strain Ellen in HFF cells; for % inhibition 10 ug/ml VZV: at 10 ug/ml; for IC50: Human alphaherpesvirus 3, VZV strain Ellen in HFF cells, read-out: IC50 (ug/ml) VZV; for inhibition at 10 µg/mL: Human alphaherpesvirus 3, read-out: % inhibition 10 ug/ml VZV, at 10 ug/ml, VZV strain Ellen in HFF cells
Method in brief: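 HFF cells infected overnight with VZV Ellen at MOI <0.1, mixed with uninfected cells, were seeded with compound and grown 3 days at 37° C in DMEM/2% FBS. Viral glycoprotein II was detected by ELISA with β-galactosidase-linked secondary; IC50 from fluorescence versus no-compound wells.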

[1] = system: HCMV recombinant mutant virus (RV145); test: HCMV microtiter plate assay (beta-glucuronidase reporter); format: cell-based, Human Cytomegalovirus; settings: for IC50 (ug/ml) HCMV: HCMV in human foreskin fibroblasts; for IC50: Human betaherpesvirus 5, Fibroblast, read-out: IC50 (ug/ml) HCMV
Method in brief: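 Replication was read out as virus-encoded β-glucuronidase activity, measured with a chromogenic or fluorogenic glucuronide substrate in cell lysates at 96 h post-infection. Infection of human foreskin fibroblasts with RV145 took place with compound present. IC50 was derived from a range of inhibitor amounts.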

HSV-1 = test: HSV Antiviral (ELISA) assay; format: cell-based; settings: for IC50 (ug/ml) HSV: HSV-1 in Vero cells; for IC50: Human alphaherpesvirus 1, HSV-1 in Vero cells, read-out: IC50 (ug/ml) HSV
Method in brief: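 Replication measured as glycoprotein D signal in fixed cells: anti-gD antibody plus β-galactosidase-linked secondary, fluorogenic substrate read at 365/450 nm. Vero cells (2% FBS DMEM) received compound 30 min pre-infection, HSV-1 MOI 0.006, ~24 h incubation; IC50 relative to no-compound fluorescence.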

SMILES | IC50 (ug/ml) VZV (VZV strain Ellen) | IC50 (ug/ml) HCMV [1] | IC50 (ug/ml) HSV (HSV-1) | % inhibition 10 ug/ml VZV (VZV strain Ellen) | IC50 (VZV strain Ellen) | inhibition at 10 µg/mL (VZV strain Ellen) | IC50 [1] | IC50 (HSV-1)
O=C(Nc1ccc(NC(=S)Nc2ccc(SC(F)(F)F)c(Cl)c2)cc1)c1ccco1 [Example 551] | >10 µg/mL | 0.043 µg/mL (≈ 0.0911 µM) | >10 µg/mL |  |  |  |  | 
O=C(Nc1ccc(NC(=S)NCc2ccccc2)cc1)c1ccco1 [Example 544] | >10 µg/mL | 0.02 µg/mL (≈ 0.0569 µM) | >10 µg/mL |  |  |  |  | 
CN(c1ccc(NC(=S)Nc2ccc(NC(=O)c3ccccn3)cc2)cc1Cl)C1CCCCC1 [Example 249] | >10 µg/mL | 0.4 µg/mL (≈ 0.81 µM) | >10 µg/mL | 59% |  |  |  | 
Nc1c(Cl)cc(C(F)(F)F)cc1NC(=S)Nc1ccc(NC(=O)c2csnn2)cc1 [Example 534] | >10 µg/mL | 0.05 µg/mL (≈ 0.106 µM) | 7 µg/mL (≈ 14.8 µM) |  |  |  |  | 
O=C(Nc1ccc(CNC(=S)Nc2ccc(Cl)c(Cl)c2)cc1)c1csnn1 [Example 630] | 4 µg/mL (≈ 9.12 µM) | 0.4 µg/mL (≈ 0.912 µM) | >10 µg/mL |  |  |  |  | 
CC(C)Cc1cc(NC(=S)Nc2ccc(NC(=O)c3csnn3)cc2)cc(C(F)(F)F)c1 [Example 557] | >10 µg/mL | 0.006 µg/mL (≈ 0.0125 µM) | >10 µg/mL |  |  |  |  | 
COc1cc(OC)c(NC(=S)Nc2ccc(NC(=O)c3ccc4ccccc4n3)cc2)cc1Cl [Example 159] | >10 µg/mL | >10 µg/mL | >10 µg/mL | 62% |  |  |  | 
CC(NC(=S)Nc1ccc(NC(=O)c2ccco2)cc1)c1ccccc1 (stereo not drawn) [Example 590] | 1 µg/mL (≈ 2.74 µM) | 0.12 µg/mL (≈ 0.328 µM) | >10 µg/mL |  |  |  |  | 
O=C(Nc1ccc(NC(=S)Nc2ccc(F)c(Cl)c2)cc1)c1ccccc1F [Example 972, N-{4-[3-(3-Chloro-4-fluoro-phenyl)-thioureido]-phenyl} -2-fluoro-benzamide] |  |  |  |  | > 15 µg/mL | 95% | 0.006 µg/mL (≈ 0.0144 µM) | > 10 µg/mL
CC(=O)Nc1cccc(NC(=S)Nc2ccc(NC(=O)c3csnn3)cc2)c1 [Example 478] | >10 µg/mL | 0.4 µg/mL (≈ 0.97 µM) | >10 µg/mL | 31% |  |  |  | 
O=C(Nc1ccc(NC(=S)Nc2cccc(Cl)c2)cc1)c1csnn1 [Example 992, [1,2,3]Thiadiazole-4-carboxylic acid {4-[3-(3-chloro-phenyl)-thioureido]-phenyl}-amide] |  |  |  |  | > 10 µg/mL | 29% | 0.018 µg/mL (≈ 0.0462 µM) | > 10 µg/mL
O=C(Nc1ccc(NC(=S)Nc2cccc(CO)c2)cc1)c1ccco1 [Example 488] | >10 µg/mL | 1.2 µg/mL (≈ 3.27 µM) | >10 µg/mL | 13% |  |  |  | 
CC(NC(=S)Nc1ccc(NC(=O)c2csnn2)cc1)c1ccccc1 (stereo not drawn) [Example 588] | 0.36 µg/mL (≈ 0.939 µM) | 0.03 µg/mL (≈ 0.0782 µM) | >10 µg/mL |  |  |  |  | 
O=C(CN1CCOCC1)Nc1ccc(NC(=S)Nc2ccc(NC(=O)c3ccco3)cc2)cc1Cl [Example 368] | >10 µg/mL | 0.35 µg/mL (≈ 0.681 µM) | >10 µg/mL | 20% |  |  |  | 
O=C(Nc1ccc(NC(=S)Nc2cccc(S(=O)(=O)CCO)c2)cc1)c1ccco1 [Example 1018, Furan-2-carboxylic acid (4-{3-[3-(2-hydroxy-ethanesulfonyl)-phenyl]-thioureido} -phenyl)-amide] |  |  |  |  | > 10 µg/mL | 2% | 0.4 µg/mL (≈ 0.898 µM) | > 10 µg/mL
O=C(Nc1ccc(NC(=S)Nc2ccc(Cl)c(Cl)c2)cc1)c1csc(-c2ccccc2)n1 [Example 1143, 2-Phenyl-thiazole-4-carboxylic acid {4-[3-(3,4-dichloro-phenyl)-thioureido]-phenyl}-amide] |  |  |  |  | > 10 µg/mL |  | 7.5 µg/mL (≈ 15 µM) | > 10 µg/mL
COc1cc(OC)c(NC(=S)Nc2ccc(NC(=O)c3nccc4ccccc34)cc2)cc1Cl [Example 158] | >15 µg/mL | >10 µg/mL | 4 µg/mL (≈ 8.11 µM) | 52% |  |  |  | 
